Data: patent US20200308240A1, “Targeting Innate Immune Signaling in Neuroinflammation and Neurodegeneration” (The General Hospital Corporation, priority 2016, published 2020)
“Also recorded” adds a separate entry of the source.

How the values were obtained:
[1] = tested on: neuronal differentiated ReNcell VM cells; test: dsRNA mimetic (PolyIC)-induced neurodegeneration in differentiated ReNVM neurons, cell viability by Celltiter-Glo; format: cell-based, human; settings: for rescue of PolyIC (dsRNA)-induced neurodegeneration / neuronal death: differentiated ReNVM human neurons transfected with PolyIC, FIGS. 4B-N; for viability of ReNVM neurons transfected with PolyIC: escalating doses of poly IC, 48 hours (2 days), relative to mock-transfected neurons, FIG. 3A-F
Protocol: FIGS. 3A-G. dsRNA induces a Type I interferon response and is sufficient to induced neurodegeneration in human neurons. A-E) Representative transmitted light images of differentiated ReNVM neurons transfected with increasing doses of PolyIC, a dsRNA mimetic, showing a dose-dependent loss of neurons after 48 hours. […] G) Western blots showing the elevated protein expression of type I interferon-stimulated genes in differentiated ReNVM cells 24 hour post transfection with PolyIC, using indicated antibodies.
FIGS. 4A-N. Inhibitors of key type I interferon regulators rescues PolyIC induced neurodegeneration in ReNVM cells.
Building on those findings, a novel in vitro human neuronal culture system was developed to recapitulate this pathophysiologic process. These cells can be used, e.g., to identify compounds that modulate dsRNA-mediated neurodegeneration, as a methodology for screening and validation of hits for the novel targets and related targets on the pathway for neurodegeneration and Alzheimer's disease pathogenesis as well as for purposes of drug screening and validation with the primary outcome being loss of neurons. Briefly, a dsRNA-mimetic was introduced into a human neural progenitor immortalized cell line, ReN VM cells, in vitro. There was profound induction of the Type I interferon signaling pathways that were stimulated in mouse models of neurodegeneration including the pattern recognition receptors, PKR and MDA5. Importantly, accelerated neuronal death was also observed over 48 hours that was dependent on the dose of the dsRNA introduced into the cytoplasm. These cell-based phenotypes in human neurons recapitulated and extended findings (described in PCT/US2015/060401) outlining cytoplasmic double-stranded RNA mediated neuronal cell death in multiple transgenic mouse lines (Nd1, Nd2, and Nd3), each expressing a different gene, and a model of induced cytoplasmic dsRNA of GFP causing accelerated neurodegeneration.
Deploying this cell-based in vitro model of accelerated neurodegeneration of human neurons, a number of inhibitors of Type I interferon signaling pathways were tested.
To determine if cytoplasmic dsRNA is sufficient to mediate neurodegeneration in human neurons, we transfected neuronal differentiated ReNcell VM cells 27, 28, a human neural cell line derived from ventral mesencephalon, with escalating doses of poly IC (which mimics a GC dinucleotide repeat). […] We observed a marked induction of the pattern recognition receptors MDA5 and PKR that are cytoplasmic receptors for dsRNA (FIG. 3G) and TBK1 phosphorylation (FIG. 4A). In addition, downstream signaling events, i.e., MAVS reduction and IRF3 translocation to the nucleus for the MDA5 pathway, and phosphorylation of p38 and HSP27 for the PKR pathway, indicate that that neurons are capable of mounting this innate immune response intrinsically. […]

IRF3 phosphorylation = IRF3 phosphorylation in poly-IC transfected ReNcell VM neurons; format: cell-based, human; settings: poly-IC transfected ReNcell VM neurons treated with inhibitor
Text: To determine if cytoplasmic dsRNA is sufficient to mediate neurodegeneration in human neurons, we transfected neuronal differentiated ReNcell VM cells 27, 28, a human neural cell line derived from ventral mesencephalon, with escalating doses of poly IC (which mimics a GC dinucleotide repeat). […] We observed a marked induction of the pattern recognition receptors MDA5 and PKR that are cytoplasmic receptors for dsRNA (FIG. 3G) and TBK1 phosphorylation (FIG. 4A). In addition, downstream signaling events, i.e., MAVS reduction and IRF3 translocation to the nucleus for the MDA5 pathway, and phosphorylation of p38 and HSP27 for the PKR pathway, indicate that that neurons are capable of mounting this innate immune response intrinsically.
Many mutations in the TBK1 coding region are linked to ALS and FTD in an autosomal dominant manner. Expression of these mutant isoforms have been difficult to detect at the RNA and protein levels, giving rise to the hypothesis that haploinsufficiency of TBK1 drives neurodegeneration. Inhibition of TBK1 kinase activity challenge the hypothesis that LOF mutations cause the pathogenesis. TBK1 is activated by polyubiquitination and regulated by proteins binding to its CCH domain, including optineurin which binds TBK1, is mutated in some familial forms of ALS that abrogates inhibition of IRF3 4.

| Compound | rescue of PolyIC (dsRNA)-induced neurodegeneration / neuronal death [1] | other results |
| --- | --- | --- |
| CC1(C)C(=O)C=C[C@]2(C)[C@H]3CC[C@@]4(C)[C@H](c5ccoc5)OC(=O)[C@H]5O[C@]54[C@]3(C)C=C[C@@H]12 [7DG] | did not show rescue of the neuronal death phenotype |  |
| Cc1cc(Nc2nc(N[C@@H](C)c3ncc(F)cn3)ncc2Cl)n[nH]1 [AZD1480, 5-Chloro-N2-[(1S)-1-(5-fluoro-2-pyrimidinyl)ethyl]-N4-(5-methyl-1H-pyrazol-3-yl)-2,4-pyrimidinediamine] | rescued PolyIC induced neurodegeneration |  |
| CCS(=O)(=O)N1CC(CC#N)(n2cc(-c3ncnc4[nH]ccc34)cn2)C1 [Baricitinib, 2-(3-(4-(7H-pyrrolo[2,3-d]pyrimidin-4-yl)-1H-pyrazol-1-yl)-1-(ethylsulfonyl)azetidin-3-yl)acetonitrile] | blocked neurodegeneration in dose dependent manner; also recorded: rescued PolyIC induced neurodegeneration |  |
| O=C1Nc2ccc3ncsc3c2/C1=C/c1cnc[nH]1 [C16] | did not show rescue of the neuronal death phenotype |  |
| N#CCNC(=O)c1ccc(-c2ccnc(Nc3ccc(N4CCOCC4)cc3)n2)cc1 [CYT387, N-(Cyanomethyl)-4-[2-[[4-(4-morpholinyl)phenyl]amino]-4-pyrimidinyl]benzamide] | blocked neurodegeneration in dose dependent manner; also recorded: rescued PolyIC induced neurodegeneration |  |
| O=C(Nc1nc2cccc(-c3ccc(CN4CCS(=O)(=O)CC4)cc3)n2n1)C1CC1 [Filgotinib, N-[5-[4-[(1,1-Dioxido-4-thiomorpholinyl)methyl]phenyl][1,2,4]triazolo[1,5-a]pyridin-2-yl]cyclopropanecarboxamide] | blocked neurodegeneration in dose dependent manner; also recorded: rescued PolyIC induced neurodegeneration |  |
| Cl.O=C(NN1CCC(N2CCCC2)CC1)c1ccc(Nc2nccc(-c3cc4ccccc4s3)n2)cc1 [IKK16, N-(4-Pyrrolidin-1-yl-piperidin-1-yl)-[4-(4-benzo[b]thiophen-2-yl-pyrimidin-2-ylamino)phenyl]carboxamide hydrochloride] |  | IRF3 phosphorylation (IRF3 phosphorylation): reduced IRF3 phosphorylation; rescue of PolyIC (dsRNA)-induced neurodegeneration / neuronal death ([1]; hydrochloride): reversed poly-IC-mediated neurodegeneration; also recorded: rescued PolyIC induced neurodegeneration |
| O=C(NCCCNc1nc(Nc2cccc(NC(=O)N3CCCC3)c2)ncc1I)c1cccs1 [NK-6] | dose-dependent rescue of dsRNA-mediated neurodegeneration | rescue of PolyIC (dsRNA)-induced neurodegeneration / neuronal death ([1]; listed as BX795): rescues poly-IC-mediated neurodegeneration in a dose dependent manner; also recorded: rescued PolyIC induced neurodegeneration |
| NC(=O)Nc1sc(-c2ccc(F)cc2)cc1C(N)=O [NK-7, 2-[(Aminocarbonyl)amino]-5-(4-fluorophenyl)-3-thiophenecarboxamide] | dose-dependent rescue of dsRNA-mediated neurodegeneration | IRF3 phosphorylation (IRF3 phosphorylation): reduced IRF3 phosphorylation; rescue of PolyIC (dsRNA)-induced neurodegeneration / neuronal death ([1]; listed as TPCA1): reversed poly-IC-mediated neurodegeneration; rescue of PolyIC (dsRNA)-induced neurodegeneration / neuronal death ([1]; listed as TPCA-1): rescued PolyIC induced neurodegeneration |
| CC(C)c1ccc2oc3nc(N)c(C(=O)O)cc3c(=O)c2c1 [NK-10, amlexanox] | rescued neurodegeneration; also recorded: dose-dependent rescue of dsRNA-mediated neurodegeneration | rescue of PolyIC (dsRNA)-induced neurodegeneration / neuronal death ([1]; listed as Amlexanox): rescued PolyIC induced neurodegeneration |
| CNC(=O)c1ccc(C)c(-n2c(C)cc(OCc3ccc(F)cc3F)c(Br)c2=O)c1 [PH 797804] | did not show rescue of the neuronal death phenotype |  |
| C1=C/COCc2cc(ccc2OCCN2CCCC2)Nc2nccc(n2)-c2cccc(c2)COC/1 [Pacritinib-1, 11-(2-pyrrolidin-1-yl-ethoxy)-14,19-dioxa-5,7,26-triaza-tetracyclo[19.3.1.1(2,6).1(8,12)]heptacosa-1(25),2(26),3,5,8,10,12(27),16,21,23-decaene] | blocked neurodegeneration in dose dependent manner; also recorded: rescued PolyIC induced neurodegeneration |  |
| Cc1cnc(Nc2ccc(OCCN3CCCC3)cc2)nc1Nc1cccc(S(=O)(=O)NC(C)(C)C)c1 [TG101348, 2.N-tert-butyl-3-(5-methyl-2-(4-(2-(pyrrolidin-1-yl)ethoxy)phenylamino)pyrimidin-4-ylamino)benzenesulfonamide] | blocked neurodegeneration in dose dependent manner; also recorded: rescued PolyIC induced neurodegeneration |  |
| C[C@@H]1CCN(C(=O)CC#N)C[C@@H]1N(C)c1ncnc2[nH]ccc12 [Tofacitinib, 3-((3R,4R)-4-methyl-3-(methyl(7H-pyrrolo [2,3-d]pyrimidin-4-yl)amino)piperidin-1-yl)-3-oxopropanenitrile] | blocked neurodegeneration in dose dependent manner; also recorded: rescued PolyIC induced neurodegeneration |  |
| O=C(Nc1ccc(-c2ccnc(Nc3ccc(N4CCOCC4)cc3)n2)cc1)[C@@H]1CCCN1 [XL019, (S)-N-(4-(2-((4-morpholinophenyl)amino)pyrimidin-4-yl)phenyl)pyrrolidine-2-carboxamide] | blocked neurodegeneration in dose dependent manner; also recorded: rescued PolyIC induced neurodegeneration |  |
| PolyIC |  | viability of ReNVM neurons transfected with PolyIC [1]: dose-dependent loss in cell viability; viability of ReNVM neurons transfected with PolyIC ([1]; listed as poly IC): dose-dependent reduction in their viability |
